pIC50, pKi: −log10 of the molar value.
Legend:
ALK-wt = target: T1, ALK-wt (Homo sapiens, UniProt Q9UM73); test: Biochemical kinase assay, ALK-wt kinase domain; details: apparent inhibitory constant, Morrison equation; ATP 2 mM in substrate solution; read-out: ALK-wt Ki^app
T1 construct: purchased Carna 08-518
Description: (§1) First, 250 nL of compound dissolved in DMSO (100-fold of the desired concentration) was dispensed into a 384-well plate. A 12.5 μL substrate solution containing ATP (2 mM) and fluorogenic phosphorylation substrate AQT0101 (26 μM for ALK and ROS1, AssayQuant) or AQT0104 (26 μM for TRKA, AssayQuant) in buffer (50 mM HEPES pH 7.5, 0.01% Brij-35, 0.5 mM EGTA, 10 mM MgCl2) was added and mixed thoroughly. Then, a 12.5 μL kinase solution containing ALK-wt (1.5 nM, Carna, 08-518), ALK ALK L1196M/G1202R (3 nM, SignalChem, A19-12NG), ROS1-wt (0.6 nM, Carna, 08-163), ROS1-G2032R (0.5 nM, SignalChem, R14-12BG), or TRKA-wt (1 nM, BPS Bio, 40280) kinase domains in buffer (50 nM HEPES pH 7.5, 0.01% Brij-35, 2% glycerol, 0.4 mg/mL BSA, 0.5 mM EGTA, and 10 mM MgCl2) was added and mixed thoroughly. The plate was sealed and read by SpectraMax Paradigm at λ=485 nm every 2 minutes for 120 minutes at 30° C. Initial rates of reaction (v) were calculated from the change in fluorescence intensity over time during the initial, linear portion of the reaction. Finally, apparent inhibitory constants (Ki^app) were determined from regression of v and I (inhibitor concentration) to Morrison Equation (E=enzyme concentration): […]

ALK L1196M/G1202R = target: T2, ALK L1196M/G1202R (Homo sapiens, UniProt Q9UM73, G1202R/L1196M); test: Biochemical kinase assay, ALK L1196M/G1202R kinase domain; details: apparent inhibitory constant, Morrison equation; ATP 2 mM in substrate solution; read-out: ALK-L1196M-G1202R Ki^app
T2 construct: purchased SignalChem A19-12NG
Description: as §1

ROS1-wt = target: T3, ROS1-wt (Homo sapiens, UniProt P08922); test: Biochemical kinase assay, ROS1-wt kinase domain; details: apparent inhibitory constant, Morrison equation; ATP 2 mM in substrate solution; read-out: ROS1-wt Ki^app
T3 construct: purchased Carna 08-163
Description: as §1, with “Then, a 12.5 μL kinase solution containing ALK-wt (1.5 nM, Carna, 08-518), ALK ALK L1196M/G1202R (3 nM, SignalChem, A19-12NG), ROS1-wt (0.6 nM, Carna, 08-163), ROS1-G2032R (0.5 nM, SignalChem, R14-12BG), or TRKA-wt (1 nM, BPS Bio, 40280) kinase domains in buffer (50 nM HEPES pH 7.5, 0.01% Brij-35, 2% glycerol, 0.4 mg/mL BSA, 0.5 mM EGTA, and 10 mM MgCl2) was added and mixed thoroughly.” left out

ROS1-G2032R = target: T4, ROS1-G2032R (Homo sapiens, UniProt P08922, G2032R); test: Biochemical kinase assay, ROS1-G2032R kinase domain; details: apparent inhibitory constant, Morrison equation; ATP 2 mM in substrate solution; read-out: ROS1-G2032R Ki^app
T4 construct: purchased SignalChem R14-12BG
Description: as §1, with “Then, a 12.5 μL kinase solution containing ALK-wt (1.5 nM, Carna, 08-518), ALK ALK L1196M/G1202R (3 nM, SignalChem, A19-12NG), ROS1-wt (0.6 nM, Carna, 08-163), ROS1-G2032R (0.5 nM, SignalChem, R14-12BG), or TRKA-wt (1 nM, BPS Bio, 40280) kinase domains in buffer (50 nM HEPES pH 7.5, 0.01% Brij-35, 2% glycerol, 0.4 mg/mL BSA, 0.5 mM EGTA, and 10 mM MgCl2) was added and mixed thoroughly.” left out

TRKA-wt = target: T5, TRKA-wt (Homo sapiens, UniProt P04629); test: Biochemical kinase assay, TRKA-wt kinase domain; details: apparent inhibitory constant, Morrison equation; ATP 2 mM in substrate solution; read-out: TRKA-wt Ki^app
T5 construct: or TRKA-wt (1 nM, BPS Bio, 40280) kinase domains in buffer; purchased BPS Bio 40280
Description: as §1

[1] = target: T6, Ba/F3 cells CD74-ROS1 wild-type (wt) (Homo sapiens, UniProt P08922); test: Ba/F3 cell proliferation assay, CD74-ROS1 wild-type; format: cell-based; details: 72 hours, CellTiter-Glo
T6 construct: fusion of the C-terminus of ROS1 with the N-terminus of various partner proteins; host or cells: Ba/F3 (RIKEN), retroviral pMSCV-puro; the other entry of the earlier key: CD74 (P04233, HLA class II histocompatibility antigen gamma chain)
How it was run: (§2)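 IL-3-independent Ba/F3 CD74-ROS1 lines, puromycin-selected monoclones; 1,000 cells/well, plated 1 d before dosing; 3-fold serial dilutions, 72 h; CellTiter-Glo luminescence; IC50 by 4-parameter logistic regression.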

[2] = target: T7, Ba/F3 cells CD74-ROS1 G2032R (Homo sapiens, UniProt P08922, G2032R); test: Ba/F3 cell proliferation assay, CD74-ROS1 G2032R; format: cell-based; details: 72 hours, CellTiter-Glo
T7 construct: fusion of the C-terminus of ROS1 with the N-terminus of various partner proteins; host or cells: Ba/F3 (RIKEN), retroviral pMSCV-puro; the other entry of the earlier key: CD74 (P04233, HLA class II histocompatibility antigen gamma chain)
How it was run: as §2

[3] = target: T8, Ba/F3 cells EML4-ALK wt (variant 1) (Homo sapiens, UniProt Q9UM73); test: Ba/F3 cell proliferation assay, EML4-ALK wt (variant 1); format: cell-based; details: 72 hours, CellTiter-Glo
T8 construct: echinoderm microtubule-associated protein-like 4 (EML4) gene and the ALK tyrosine kinase domain; host or cells: Ba/F3 (RIKEN), retroviral pMSCV-puro; the other entry of the earlier key: EML4 (Q9HC35, Echinoderm microtubule-associated protein-like 4)
How it was run: (§3)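 Stable fusion-expressing Ba/F3 clones, 1,000 cells/well. Compounds for 72 h, CellTiter-Glo readout; IC50 by 4-parameter logistic regression.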

[4] = target: T9, Ba/F3 cells EML4-ALK L1196M/G1202R (variant 1) (Homo sapiens, UniProt Q9UM73, G1202R/L1196M); test: Ba/F3 cell proliferation assay, EML4-ALK L1196M/G1202R (variant 1); format: cell-based; details: 72 hours, CellTiter-Glo
T9 construct: echinoderm microtubule-associated protein-like 4 (EML4) gene and the ALK tyrosine kinase domain; host or cells: Ba/F3 (RIKEN), retroviral pMSCV-puro; the other entry of the earlier key: EML4 (Q9HC35, Echinoderm microtubule-associated protein-like 4)
How it was run: as §3

Ba/F3 cells TPM3-TRKA = target: T10, Ba/F3 cells TPM3-TRKA (Homo sapiens, UniProt P04629); test: Ba/F3 cell proliferation assay, TPM3-TRKA; format: cell-based; details: 72 hours, CellTiter-Glo, read-out: TPM3-NTRK1-wt IC50
T10 construct: host or cells: Ba/F3 (RIKEN), retroviral pMSCV-puro; the other entry of the earlier key: TPM3 (P06753, Tropomyosin alpha-3 chain)
How it was run: as §3

[5] = test system: TPM3-NTRK1-wt IC50 / primary target IC50 (e.g. CD74-ROS1-wt); test: TRKA selectivity in Ba/F3 cells (TRKA potency divided by primary target potency); format: cell-based; details: for TPM3-NTRK1-wt/CD74-ROS1-G2032R selectivity ratio: TRKA potency / CD74-ROS1-G2032R potency; for TPM3-NTRK1-wt/CD74-ROS1-wt selectivity ratio: TRKA potency / CD74-ROS1-wt potency; for TPM3-NTRK1-wt/EML4-ALK-L1196M-G1202R selectivity ratio: TRKA potency / EML4-ALK-L1196M-G1202R potency; for TPM3-NTRK1-wt/EML4-ALK-wt selectivity ratio: TRKA potency / EML4-ALK-wt potency
Description: TRKA selectivity was calculated by dividing a compound's TRKA potency by its primary target potency (e.g. TPM3-NTRK1-wt IC50/CD74-ROS1-wt IC50). Compound selectivity can be interpreted by binning ratio values: bin A for very high selectivity, ratio >30-fold; bin B for high selectivity, ratio >10-fold; bin C for moderate selectivity, ratio ≥1; and bin D for low selectivity, ratio <1. […] (nd=not determined).

T3 sequence (P08922 1945-2222 limits assumed): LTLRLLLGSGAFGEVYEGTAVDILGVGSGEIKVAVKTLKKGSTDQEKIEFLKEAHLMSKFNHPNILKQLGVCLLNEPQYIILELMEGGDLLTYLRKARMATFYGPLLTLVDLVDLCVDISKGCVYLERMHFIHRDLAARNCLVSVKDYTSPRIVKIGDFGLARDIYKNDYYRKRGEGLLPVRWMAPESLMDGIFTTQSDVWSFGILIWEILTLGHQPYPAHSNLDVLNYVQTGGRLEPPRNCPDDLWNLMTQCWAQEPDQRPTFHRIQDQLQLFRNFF
T4 sequence (P08922 1945-2222 G2032R limits assumed): as the sequence (P08922 1945-2222 limits assumed) above, with G88R counted along it
T5 sequence (P04629 510-781 limits assumed): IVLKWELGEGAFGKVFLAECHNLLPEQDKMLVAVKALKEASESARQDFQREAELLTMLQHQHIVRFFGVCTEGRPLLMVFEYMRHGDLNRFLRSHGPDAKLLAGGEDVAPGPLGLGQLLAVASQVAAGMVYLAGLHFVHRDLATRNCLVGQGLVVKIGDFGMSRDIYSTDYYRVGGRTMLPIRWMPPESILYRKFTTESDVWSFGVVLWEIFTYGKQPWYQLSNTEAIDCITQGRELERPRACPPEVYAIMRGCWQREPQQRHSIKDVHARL
T7 sequence (P08922 1883-2347 G2032R limits assumed): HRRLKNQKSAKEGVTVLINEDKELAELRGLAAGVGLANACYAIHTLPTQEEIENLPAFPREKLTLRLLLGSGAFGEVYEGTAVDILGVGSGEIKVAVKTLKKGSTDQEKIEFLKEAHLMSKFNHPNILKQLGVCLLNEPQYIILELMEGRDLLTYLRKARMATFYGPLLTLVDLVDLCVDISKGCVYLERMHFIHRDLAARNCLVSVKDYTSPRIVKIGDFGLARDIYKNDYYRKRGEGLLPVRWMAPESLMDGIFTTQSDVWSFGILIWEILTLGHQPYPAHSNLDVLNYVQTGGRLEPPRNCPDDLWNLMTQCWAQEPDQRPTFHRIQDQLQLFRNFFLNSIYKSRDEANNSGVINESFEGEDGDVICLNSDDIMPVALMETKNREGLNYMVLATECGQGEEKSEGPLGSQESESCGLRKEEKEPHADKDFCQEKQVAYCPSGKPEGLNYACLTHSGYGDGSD
T1 sequence (Q9UM73 1116-1392 limits assumed): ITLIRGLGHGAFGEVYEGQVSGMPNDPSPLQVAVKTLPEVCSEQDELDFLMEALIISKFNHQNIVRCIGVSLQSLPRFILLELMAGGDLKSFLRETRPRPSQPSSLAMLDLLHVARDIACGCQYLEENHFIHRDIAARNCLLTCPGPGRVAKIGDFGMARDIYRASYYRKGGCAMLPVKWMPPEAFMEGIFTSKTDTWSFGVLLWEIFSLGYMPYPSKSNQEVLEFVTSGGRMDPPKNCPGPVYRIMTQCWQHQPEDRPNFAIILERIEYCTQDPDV
T2 sequence (Q9UM73 1116-1392 L1196M/G1202R limits assumed): as the sequence (Q9UM73 1116-1392 limits assumed) above, with L81M, G87R counted along it
T8 sequence (Q9UM73 with tags, fused parts or gaps): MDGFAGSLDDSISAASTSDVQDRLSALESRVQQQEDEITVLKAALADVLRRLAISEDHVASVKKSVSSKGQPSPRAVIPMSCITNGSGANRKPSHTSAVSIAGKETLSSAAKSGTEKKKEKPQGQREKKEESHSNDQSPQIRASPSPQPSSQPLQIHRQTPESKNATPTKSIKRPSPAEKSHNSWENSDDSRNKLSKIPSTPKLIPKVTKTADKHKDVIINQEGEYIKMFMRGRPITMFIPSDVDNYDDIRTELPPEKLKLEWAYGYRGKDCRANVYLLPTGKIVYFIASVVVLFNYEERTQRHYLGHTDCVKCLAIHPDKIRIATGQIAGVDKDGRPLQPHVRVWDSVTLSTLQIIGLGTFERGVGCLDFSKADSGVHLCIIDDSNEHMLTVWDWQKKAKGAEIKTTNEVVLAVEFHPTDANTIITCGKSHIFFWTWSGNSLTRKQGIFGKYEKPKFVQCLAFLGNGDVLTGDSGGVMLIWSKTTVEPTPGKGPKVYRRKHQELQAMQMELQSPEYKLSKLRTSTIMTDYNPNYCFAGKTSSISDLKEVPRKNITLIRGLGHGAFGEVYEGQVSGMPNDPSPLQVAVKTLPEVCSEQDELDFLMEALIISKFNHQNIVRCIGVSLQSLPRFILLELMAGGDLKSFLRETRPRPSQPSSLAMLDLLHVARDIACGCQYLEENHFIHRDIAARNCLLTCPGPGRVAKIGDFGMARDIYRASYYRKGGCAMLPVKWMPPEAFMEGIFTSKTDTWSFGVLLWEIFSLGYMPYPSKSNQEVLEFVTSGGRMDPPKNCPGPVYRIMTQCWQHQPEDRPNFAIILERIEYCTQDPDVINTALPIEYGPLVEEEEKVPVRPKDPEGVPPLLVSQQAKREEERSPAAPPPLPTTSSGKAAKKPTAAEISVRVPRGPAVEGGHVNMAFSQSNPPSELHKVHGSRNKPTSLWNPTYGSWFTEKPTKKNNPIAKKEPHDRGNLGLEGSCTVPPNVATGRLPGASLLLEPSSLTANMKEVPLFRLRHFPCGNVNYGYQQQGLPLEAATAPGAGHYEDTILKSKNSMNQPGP
T6 sequence (P08922 1883-2347 limits assumed): as the sequence (P08922 1883-2347 G2032R limits assumed) above, with R150G counted along it
T9 sequence (Q9UM73 with tags, fused parts or gaps L1196M/G1202R): as the sequence (Q9UM73 with tags, fused parts or gaps) above, with L635M, G641R counted along it
T10 sequence (P04629 510-796 limits assumed): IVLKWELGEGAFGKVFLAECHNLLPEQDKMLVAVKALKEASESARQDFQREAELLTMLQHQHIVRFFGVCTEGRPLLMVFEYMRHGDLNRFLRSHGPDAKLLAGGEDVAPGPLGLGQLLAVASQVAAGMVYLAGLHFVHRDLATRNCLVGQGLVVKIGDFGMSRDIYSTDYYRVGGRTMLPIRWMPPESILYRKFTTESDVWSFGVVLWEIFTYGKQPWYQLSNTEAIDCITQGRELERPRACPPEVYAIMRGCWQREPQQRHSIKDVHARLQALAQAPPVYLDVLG

`C[C@H]1Oc2cc(cnc2N)-c2c(cnn2C2CCC2)Cn2nncc2-c2ccc(F)cc21` [Example 7, (19R)-3-cyclobutyl-16-fluoro-19-methyl-20-oxa-3,4,8,9,10,23-hexaazapentacyclo[19.3.1.0^2,^6.0^8,^12.0^13,^18]pentacosa-1(24),2(6),4,9,11,13,15,17,21(25),22-decaen-22-amine] was tested, and the pKi (ALK-wt) was greater than 7.30, the pKi (ALK L1196M/G1202R) was greater than 7.30 and the pKi (ROS1-wt) was greater than 7.30. For the same compound, the pKi (ROS1-G2032R) was 6.30 to 7.30, the pKi (TRKA-wt) was less than 6.30 and the pIC50 [1] was 7.30 to 10.00. It also gave a pIC50 [2] of 7.30 to 10.00, a pIC50 [3] of 7.30 to 10.00 and a pIC50 [4] of 6.30 to 7.30. The pIC50 (Ba/F3 cells TPM3-TRKA) was less than 6.30, the TPM3-NTRK1-wt/CD74-ROS1-G2032R selectivity ratio [5] was “A (bin A for very high selectivity, ratio >30-fold)” and the TPM3-NTRK1-wt/CD74-ROS1-wt selectivity ratio [5] was “A (bin A for very high selectivity, ratio >30-fold)”. The TPM3-NTRK1-wt/EML4-ALK-L1196M-G1202R selectivity ratio [5] was “B (bin B for high selectivity, ratio >10-fold)” and the TPM3-NTRK1-wt/EML4-ALK-wt selectivity ratio [5] was “A (bin A for very high selectivity, ratio >30-fold)”.

`CCn1ncc2c1-c1cnc(N)c(c1)O[C@H](C)c1cc(F)ccc1-c1cn(C)nc1C2` [Example 9, (19R)-3-ethyl-16-fluoro-10,19-dimethyl-20-oxa-3,4,9,10,23-pentaazapentacyclo[19.3,1.0^2,^6.0^8,^12.0^13,^18]pentacosa-1(24),2(6),4,8,11,13,15,17,21 (25),22-decaen-22-amine] showed a pKi (ALK-wt) greater than 7.30, a pKi (ALK L1196M/G1202R) greater than 7.30 and a pKi (ROS1-wt) greater than 7.30. For the same compound, the pKi (ROS1-G2032R) was greater than 7.30, the pKi (TRKA-wt) was 6.30 to 7.30 and the pIC50 [1] was 7.30 to 10.00. The pIC50 [2] was 7.30 to 10.00, the pIC50 [3] was 7.30 to 10.00 and the pIC50 [4] was 7.30 to 10.00. For the same compound, the pIC50 (Ba/F3 cells TPM3-TRKA) was less than 6.30, the TPM3-NTRK1-wt/CD74-ROS1-G2032R selectivity ratio [5] was “A (bin A for very high selectivity, ratio >30-fold)” and the TPM3-NTRK1-wt/CD74-ROS1-wt selectivity ratio [5] was “A (bin A for very high selectivity, ratio >30-fold)”. The TPM3-NTRK1-wt/EML4-ALK-L1196M-G1202R selectivity ratio [5] was “B (bin B for high selectivity, ratio >10-fold)” and the TPM3-NTRK1-wt/EML4-ALK-wt selectivity ratio [5] was “A (bin A for very high selectivity, ratio >30-fold)”.

With `C[C@H]1Oc2cc(cnc2N)-c2c(cnn2C2CCC2)Cn2ncc(C#N)c2-c2ccc(F)cc21` [Example 10, (19R)-22-amino-3-cyclobutyl-16-fluoro-19-methyl-20-oxa-3,4,8,9,23-pentaazapentacyclo[19.3.1.0^2,^6.0^8,^12.0^13,^18]pentacosa-1(24),2(6),4,9,11,13,15,1 7,21(25),22-decaene-11-carbonitrile] the pKi (ALK-wt) was greater than 7.30, the pKi (ALK L1196M/G1202R) was greater than 7.30 and the pKi (ROS1-wt) was greater than 7.30. The pKi (ROS1-G2032R) was greater than 7.30, the pKi (TRKA-wt) was less than 6.30 and the pIC50 [1] was 7.30 to 10.00. For the same compound, the pIC50 [2] was 7.30 to 10.00, the pIC50 [3] was 7.30 to 10.00 and the pIC50 [4] was 6.30 to 7.30. The pIC50 (Ba/F3 cells TPM3-TRKA) was less than 6.30, the TPM3-NTRK1-wt/CD74-ROS1-G2032R selectivity ratio [5] was “A (bin A for very high selectivity, ratio >30-fold)” and the TPM3-NTRK1-wt/CD74-ROS1-wt selectivity ratio [5] was “A (bin A for very high selectivity, ratio >30-fold)”. The TPM3-NTRK1-wt/EML4-ALK-L1196M-G1202R selectivity ratio [5] was “B (bin B for high selectivity, ratio >10-fold)” and the TPM3-NTRK1-wt/EML4-ALK-wt selectivity ratio [5] was “A (bin A for very high selectivity, ratio >30-fold)”.

Source: patent US12054498B2, “Heteroaromatic macrocyclic ether chemotherapeutic agents” (Nuvalent, Inc., priority 2020, dated 2024)
